Results as given in patent US8299056B2 (Signal Pharmaceuticals, LLC, priority 2008, dated 2012).

target: T1, Syk (Homo sapiens, UniProt P43405); experiment: Syk HTRF assay; type: biochemical; details: IC50 activity level, read-out: Activity Level
T1 construct: purchased Carna Biosciences
In short: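 Read-out is the 665 nm/615 nm time-resolved fluorescence ratio after EDTA stop and Eu-anti-phosphotyrosine plus streptavidin-DyLight 647 detection. Reaction ran 1 h at room temperature with start mix of 87.5 μM ATP and 80 nM substrate peptide in pH 7.6 HEPES/MgCl2 buffer.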

Q: With `c1ccc(Nc2nc3cccc(NC4CCOCC4)n3n2)cc1` [Example 438, N^2-phenyl-N^5-(tetrahydro-2H-pyran-4-yl)-[1,2,4]triazolo[1,5-a]pyridine-2,5-diamine] as the compound, how does the IC50 read?
A: 1000 to 10000 nM

Q: Which IC50 does the source give for `c1ccc(Nc2nc3cccc(-c4ccc5cn[nH]c5c4)n3n2)cc1` [Example 485, 5-(1H-indazol-6-yl)-N-phenyl-[1,2,4]triazolo[1,5-a]pyridin-2-amine] here?
A: 0.005 to 250 nM

Q: How did the IC50 turn out when `COCc1n[nH]c2cc(Nc3nc4cccc(CN5CCNC(=O)C5)n4n3)ccc12` [Example 533, 4-((2-(3-(methoxymethyl)-1H-indazol-6-ylamino)-[1,2,4]triazolo[1,5-a]pyridin-5-yl)methyl)piperazin-2-one] was run?
A: 0.005 to 250 nM

Q: With `OC1(Cc2cccc3nc(Nc4ccc(F)cc4)nn23)CCNCC1` [Example 430, 4-((2-(4-fluorophenylamino)-[1,2,4]triazolo[1,5-a]pyridin-5-yl)methyl)piperidin-4-ol] as the compound, how does the IC50 read?
A: 1000 to 10000 nM

Q: `Cc1noc2cc(Nc3nc4cccc(N[C@H]5CC[C@@H](O)CC5)n4n3)ccc12` [Example 543, cis-4-(2-(3-methylbenzo[d]isoxazol-6-ylamino)-[1,2,4]triazolo[1,5-a]pyridin-5-ylamino)cyclohexanol] was tested. Which IC50 did it give?
A: 0.005 to 250 nM

Q: How did the IC50 turn out when `c1ccc(Nc2nc3cccc(Nc4ccccn4)n3n2)cc1` [Example 484, N^2-phenyl-N^5-(pyridin-2-yl)-[1,2,4]triazolo[1,5-a]pyridin-2,5-diamine] was run?
A: 500 to 1000 nM

Q: For `NC(=O)c1ccc(Nc2nc3cccc(NC4CCCNC4)n3n2)cc1` (stereo in doubt) [Example 476, (R)-4-(5-(piperidin-3-ylamino)-[1,2,4]triazolo[1,5-a]pyridin-2-ylamino)benzamide], which IC50 is on record?
A: 1000 to 10000 nM

same assay, conditions: activity levels A-D, read-out: Activity Level (IC50 in the Syk HTRF assay)

Q: Which IC50 does the source give for `CNc1cc(Nc2nc3cccc(N[C@H]4CC[C@@H](O)CC4)n3n2)ccn1` [Example 366, cis-4-(2-(2-(methylamino)pyridin-4-ylamino)-[1,2,4]triazolo[1,5-a]pyridin-5-ylamino)cyclohexanol] here?
A: 0.005 to 250 nM

Q: Which IC50 does the source give for `OC1CN(c2cccc3nc(Nc4ccc(C(F)(F)F)cc4)nn23)C1` [Example 287, 1-(2-(4-(trifluoromethyl)phenylamino)-[1,2,4]triazolo[1,5-a]pyridin-5-yl)azetidin-3-ol] here?
A: 0.005 to 250 nM

Q: With `CNC(=O)c1ccc(Nc2nc3cccc(O[C@H]4CC[C@@H](N)CC4)n3n2)cc1` [Example 283, cis-4-(5-(4-aminocyclohexyloxy)-[1,2,4]triazolo[1,5-a]pyridin-2-ylamino)-N-methylbenzamide] as the compound, how does the IC50 read?
A: 1000 to 10000 nM

Q: For `NC(=O)c1cccc(Nc2nc3cccc(N[C@H]4CC[C@@H](O)CC4)n3n2)c1` [Example 337, cis-3-(5-(4-hydroxycyclohexylamino)-[1,2,4]triazolo[1,5-a]pyridin-2-ylamino)benzamide], which IC50 is on record?
A: 250 to 500 nM

Q: `COc1cccc(Nc2nc3cccc(N[C@H]4CC[C@@H](O)CC4)n3n2)n1` [Example 342, cis-4-(2-(6-methoxypyridin-2-ylamino)-[1,2,4]triazolo[1,5-a]pyridin-5-ylamino)cyclohexanol] was tested. Which IC50 did it give?
A: 1000 to 10000 nM

Q: `Cc1n[nH]c2cc(Nc3nc4cccc(NC5CCOCC5)n4n3)ccc12` [Example 209, N^2-(3-methyl-1H-indazol-6-yl)-N^5-(tetrahydro-2H-pyran-4-yl)-[1,2,4]triazolo[1,5-a]pyridin-2,5-diamine] was tested. Which IC50 did it give?
A: 0.005 to 250 nM

Q: With `O[C@H]1CC[C@@H](CNc2cccc3nc(Nc4ccc(C(F)(F)F)cc4)nn23)CC1` [Example 382, cis-4-((2-(4-(trifluoromethyl)phenylamino)-[1,2,4]triazolo[1,5-a]pyridin-5-ylamino)methyl)cyclohexanol] as the compound, how does the IC50 read?
A: 1000 to 10000 nM

Q: `OC1CCC[C@@H]1Nc1cccc2nc(Nc3ccc(C(F)(F)F)cc3)nn12` (stereo in doubt) [Example 374, (1S,2S)-2-(2-(4-(trifluoromethyl)phenylamino)-[1,2,4]triazolo[1,5-a]pyridin-5-ylamino)cyclopentanol] was tested. Which IC50 did it give?
A: 0.005 to 250 nM

Q: With `NC(=O)c1cncc(Nc2nc3cccc(N[C@H]4CC[C@@H](O)CC4)n3n2)c1` [Example 369, cis-5-(5-(4-hydroxycyclohexylamino)-[1,2,4]triazolo[1,5-a]pyridin-2-ylamino)nicotinamide] as the compound, how does the IC50 read?
A: 1000 to 10000 nM

Q: How did the IC50 turn out when `CNC(=O)c1ccc(Nc2nc3cccc(OC4CCC(N)CC4)n3n2)cc1` (stereo in doubt) [Example 291, trans-4-(5-(4-aminocyclohexyloxy)-[1,2,4]triazolo[1,5-a]pyridin-2-ylamino)-N-methylbenzamide] was run?
A: 250 to 500 nM

same assay, conditions: read-out: Activity Level (Syk HTRF assay IC50)

Q: For `CC1(C)C(=O)Nc2cc(Nc3nc4cccc(Cc5cc[nH]c(=O)c5)n4n3)ccc21` [Example 156, 3,3-dimethyl-6-(5-((2-oxo-1,2-dihydropyridin-4-yl)methyl)-[1,2,4]triazolo[1,5-a]pyridin-2-ylamino)indolin-2-one], which IC50 is on record?
A: 0.005 to 250 nM

Q: `c1cc(NC2CCOCC2)n2nc(Nc3cnc4cn[nH]c4c3)nc2c1` [compound 111] was tested. Which IC50 did it give?
A: 1000 to 10000 nM

Q: `Cn1cnc2cc(Nc3nc4cccc(-c5ccccc5)n4n3)ccc21` [compound 55, N-(1-methyl-1H-benzo[d]imidazol-5-yl)-5-phenyl-[1,2,4]triazolo[1,5-a]pyridin-2-amine] was tested. Which IC50 did it give?
A: 250 to 500 nM

Q: `c1ccc(-c2cccc3nc(Nc4ccc5oncc5c4)nn23)cc1` [compound 43, N-(5-phenyl-[1,2,4]triazolo[1,5-a]pyridin-2-yl)benzo[d]isoxazol-5-amine] was tested. Which IC50 did it give?
A: 0.005 to 250 nM

Q: For `c1ccc(-c2cccc3nc(Nc4ccc5cn[nH]c5c4)nn23)cc1` [compound 68], which IC50 is on record?
A: 0.005 to 250 nM

Q: Which IC50 does the source give for `COc1cncc(Nc2nc3cccc(-c4ccccc4)n3n2)c1` [compound 38, N-(5-methoxypyridin-3-yl)-5-phenyl-[1,2,4]triazolo[1,5-a]pyridin-2-amine] here?
A: 500 to 1000 nM

Q: Which IC50 does the source give for `CC1(C)C(=O)Nc2cc(Nc3nc4cccc(N5CCC(O)CC5)n4n3)ccc21` [compound 114, 6-(5-(4-hydroxypiperidin-1-yl)-[1,2,4]triazolo[1,5-a]pyridin-2-ylamino)-3,3-dimethylindolin-2-one] here?
A: 0.005 to 250 nM

Q: With `Oc1cccc(-c2cccc3nc(Nc4ccccc4)nn23)c1` [Example 92] as the compound, how does the IC50 read?
A: 0.005 to 250 nM

Q: With `c1ccc(-c2cccc3nc(Nc4ccc5c(c4)CNC5)nn23)cc1` [compound 53] as the compound, how does the IC50 read?
A: 0.005 to 250 nM
